Values of other authors as cited in US12622967B2, “Molecules, formulations, and methods for nutritional support of athletes, patients, and others” (Today, Inc., priority 2022, dated 2026).

Tests used:
[1] = systemic infusion to target 4 mM blood [lactate]; human experimentation under way, personal communication
[2] = high intensity exercise

Row | SMILES | effect on cerebral LPR (lactate/pyruvate ratio) [1] | time to be oxidized to energy [2]
1 | CC(O)C(=O)[O-].[Na+] (centres unmarked) [sodium lactate] | decreases cerebral LPR | –
2 | CC(O)C(=O)O (centres unmarked) [lactate] | – | less than 5 min
